Data published in patent publication US7935702B2, “Substituted biaryl quinolin-4-ylamine analogues” (Neurogen Corporation, priority 2004, dated 2011).
Like-named read-outs stand apart in the source and are kept apart here.

Molecular target: T1, human capsaicin receptor (Homo sapiens, UniProt Q8NER1)
T1 construct: expressed in transfected cells
Experiment: Calcium mobilization assay, determination of antagonist activity (Example 6)
Assay type: cell-based
Experimental: A cDNA encoding full length human capsaicin receptor (SEQ ID NO:1, 2 or 3 of U.S. Pat. No. 6,482,611) is subcloned in the plasmid pBK-CMV (Stratagene, La Jolla, Calif.) for recombinant expression in mammalian cells.
Human embryonic kidney (HEK293) cells are transfected with the pBK-CMV expression construct encoding the full length human capsaicin receptor using standard methods. The transfected cells are selected for two weeks in media containing G418 (400 μg/ml) to obtain a pool of stably transfected cells. Independent clones are isolated from this pool by limiting dilution to obtain clonal stable cell lines for use in subsequent experiments.
This Example illustrates representative calcium mobilization assays for use in evaluating test compounds for agonist and antagonist activity.
Cells transfected with expression plasmids (as described in Example 4) and thereby expressing human capsaicin receptor are seeded and grown to 70-90% confluency in FALCON black-walled, clear-bottomed 96-well plates (#3904, BECTON-DICKINSON, Franklin Lakes, N.J.). The culture medium is emptied from the 96 well plates and FLUO-3 AM calcium sensitive dye (Molecular Probes, Eugene, Oreg.) is added to each well (dye solution: 1 mg FLUO-3 AM, 440 μL DMSO and 440 μl 20% pluronic acid in DMSO, diluted 1:250 in Krebs-Ringer HEPES (KRH) buffer (25 mM HEPES, 5 mM KCl, 0.96 mM NaH2PO4, 1 mM MgSO4, 2 mM CaCl2, 5 mM glucose, 1 mM probenecid, pH 7.4), 50 μl diluted solution per well). Plates are covered with aluminum foil and incubated at 37° C. for 1-2 hours in an environment containing 5% CO2. After the incubation, the dye is emptied from the plates, and the cells are washed once with KRH buffer, and resuspended in KRH buffer.
To measure the ability of a test compound to agonize or antagonize a calcium mobilization response in cells expressing capsaicin receptors to capsaicin or other vanilloid agonist, the EC50 of the agonist capsaicin is first determined. An additional 20 μl of KRH buffer and 1 μl DMSO is added to each well of cells, prepared as described above. 100 μl capsaicin in KRH buffer is automatically transferred by the FLIPR instrument to each well. Capsaicin-induced calcium mobilization is monitored using either FLUOROSKAN ASCENT (Labsystems; Franklin, Mass.) or FLIPR (fluorometric imaging plate reader system; Molecular Devices, Sunnyvale, Calif.) instruments. Data obtained between 30 and 60 seconds after agonist application are used to generate an 8-point concentration response curve, with final capsaicin concentrations of 1 nM to 3 μM. KALEIDAGRAPH software (Synergy Software, Reading, Pa.) is used to fit the data to the equation: y=a*(1/(1+(b/x)^c)) to determine the 50% excitatory concentration (EC50) for the response. In this equation, y is the maximum fluorescence signal, x is the concentration of the agonist or antagonist (in this case, capsaicin), a is the Emax, b corresponds to the EC50 value and c is the Hill coefficient. Determination of Agonist Activity
Test compounds are dissolved in DMSO, diluted in 20 μl KRH buffer so that the final concentration of test compounds in the assay well is between 1 μM and 5 μM, and added to cells prepared as described above. The 96 well plates containing prepared cells and test compounds are incubated in the dark, at room temperature for 0.5 to 6 hours. It is important that the incubation not continue beyond 6 hours. Just prior to determining the fluorescence response, 100 μl capsaicin in KRH buffer at twice the EC50 concentration determined as described above is automatically added by the FLIPR instrument to each well of the 96 well plate for a final sample volume of 200 μl and a final capsaicin concentration equal to the EC50. The final concentration of test compounds in the assay wells is between 1 μM and 5 μM. […]

[1] = Table I, IC50 determined as described in Example 6, read-out: IC50
[2] = cells expressing human capsaicin receptor, capsaicin at EC50, read-out: IC50 determined as described in Example 6

T1 sequence (Q8NER1 whole entry): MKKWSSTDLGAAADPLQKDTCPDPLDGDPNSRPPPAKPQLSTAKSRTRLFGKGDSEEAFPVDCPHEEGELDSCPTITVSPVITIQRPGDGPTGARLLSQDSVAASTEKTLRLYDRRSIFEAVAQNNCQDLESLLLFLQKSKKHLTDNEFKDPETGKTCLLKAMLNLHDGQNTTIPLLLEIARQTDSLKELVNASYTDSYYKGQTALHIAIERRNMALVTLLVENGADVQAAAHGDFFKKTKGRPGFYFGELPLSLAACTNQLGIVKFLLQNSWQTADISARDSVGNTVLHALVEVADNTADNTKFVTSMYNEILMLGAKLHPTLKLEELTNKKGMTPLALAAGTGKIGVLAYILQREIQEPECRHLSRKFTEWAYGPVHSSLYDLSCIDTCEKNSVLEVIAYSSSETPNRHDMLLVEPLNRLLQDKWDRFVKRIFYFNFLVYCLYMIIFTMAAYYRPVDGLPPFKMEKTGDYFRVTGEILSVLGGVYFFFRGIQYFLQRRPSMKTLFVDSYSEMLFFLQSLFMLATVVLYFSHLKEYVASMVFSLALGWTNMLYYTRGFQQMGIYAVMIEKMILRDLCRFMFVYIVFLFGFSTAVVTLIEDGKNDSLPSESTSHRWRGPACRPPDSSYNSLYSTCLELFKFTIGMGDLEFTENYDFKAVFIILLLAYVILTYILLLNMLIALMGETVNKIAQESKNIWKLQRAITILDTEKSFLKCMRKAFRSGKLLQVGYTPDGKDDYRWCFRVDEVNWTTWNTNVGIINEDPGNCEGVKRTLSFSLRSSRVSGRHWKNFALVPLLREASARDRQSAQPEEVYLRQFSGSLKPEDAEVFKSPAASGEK

SMILES	IC50 [1]	IC50 [2]
CCOc1nc(Nc2ccnc3nc(-c4ncc(C(N)=O)cc4C(F)(F)F)cnc23)ccc1C(F)(F)F [compound 48, 6-(8-{[6-ethoxy-5-(trifluoromethyl)pyridin-2-yl]amino}pyrido[2,3-b]pyrazin-3-yl)-5-(trifluoromethyl)nicotinamide]	< 1000 nM	–
Cc1ccc(C(F)(F)F)c(-c2ccc3c(Nc4ccc(C(F)(F)F)cn4)ccnc3n2)n1 [compound 28, [7-(6-Methyl-3-trifluoromethyl-pyridin-2-yl)-[1,8]naphthyridin-4-yl]-(5-trifluoromethyl-pyridin-2-yl)-amine]	< 1000 nM	–
C=CCN(CC=C)c1cc(C(F)(F)F)c(-c2cnc3c(Nc4ccc(C(F)(F)F)cn4)ccnc3n2)nn1 [compound 150, 3-[6-(diallylamino)-4-(trifluoromethyl)pyridazin-3-yl]-N-[5-(trifluoromethyl)-pyridin-2-yl]pyrido[2,3-b]pyrazin-8-amine]	< 1000 nM	–
CCCN(CCC)C1CCN(c2cc(C(F)(F)F)c(-c3cnc4c(Nc5ccc(C(F)(F)F)cn5)ccnc4n3)nn2)CC1 [compound 81, 3-{6-[4-(dipropylamino)-piperidin-1-yl]-4-(trifluoro-methyl)pyridazin-3-yl}-N-[5-(trifluoromethyl)pyridin-2-yl]pyrido[2,3-b]pyrazin-8-amine]	< 1000 nM	–
CCCN(CC1CC1)C1CCN(c2cc(C(F)(F)F)c(-c3cnc4c(Nc5ccc(C(F)(F)F)cn5)ccnc4n3)nn2)CC1 [compound 87, 3-[6-{4-[(cyclopropylmethyl)-(propyl)amino]piperidin-1-yl}-4-(trifluoromethyl)-pyridazin-3-yl]-N-[5-(trifluoromethyl)pyridin-2-yl]-pyrido[2,3-b]pyrazin-8-amine]	< 1000 nM	–
COc1ccc(C(F)(F)F)c(-c2ccc3c(Nc4ncc(C(F)(F)F)cn4)ccnc3n2)n1 [Compound 6, [7-(6-Methoxy-3-trifluoromethyl-pyridin-2-yl)-[1,8]naphthyridin-4-yl]-(5-trifluoromethyl-pyrimidin-2-yl)-amine]	–	< 1000 nM
O=C(O)c1ccc(-c2cnc3c(Nc4ccc(C(F)(F)F)cn4)ccnc3n2)c(C(F)(F)F)c1 [compound 38, 3-(trifluoromethyl)-4-(8-{[5-(trifluoromethyl)pyridin-2-yl]amino}pyrido[2,3-b]pyrazin-3-yl)benzoic acid]	< 1000 nM	–
NC(=O)c1cnc(-c2cnc3c(Nc4cnc5ccccc5n4)ccnc3n2)c(C(F)(F)F)c1 [Compound 14, 6-(8-(Quinoxalin-2-ylamino)pyrido[2,3-b]pyrazin-3-yl)-5-(trifluoromethyl)nicotinamide]	–	< 1000 nM
N#Cc1ccc(-c2cnc3c(Nc4ccc(C(F)(F)F)cn4)ccnc3n2)c(C(F)(F)F)c1 [compound 36, 3-(trifluoromethyl)-4-(8-{[5-(trifluoromethyl)pyridin-2-yl]amino}pyrido[2,3-b]pyrazin-3-yl)benzonitrile]	< 1000 nM	–
COc1ccc(C(F)(F)F)c(-c2ccc3c(Nc4ccc(C(F)(F)F)cn4)ccnc3n2)n1 [Compound 5, [7-(6-Methoxy-3-trifluoromethyl-pyridin-2-yl)-[1,8]naphthyridin-4-yl]-(5-trifluoromethyl-pyridin-2-yl)-amine]	–	< 1000 nM
NC(=O)c1cnc(-c2cnc3c(Nc4ccc(C(F)(F)F)cn4)ccnc3n2)c(C(F)(F)F)c1 [Compound 4, 5-Trifluoromethyl-6-[8-(5-trifluoromethyl-pyridin-2-ylamino)-pyrido[2,3-b]pyrazin-3-yl]-nicotinamide]	–	< 1000 nM
FC(F)(F)c1ccc(Nc2ccnc3nc(-c4nc(Cl)ccc4C(F)(F)F)ccc23)nc1 [compound 23, [7-(6-Chloro-3-trifluoromethyl-pyridin-2-yl)-[1,8]naphthyridin-4-yl]-(5-trifluoromethyl-pyridin-2-yl)-amine]	< 1000 nM	–
O=C(O)c1ccc(C(F)(F)F)c(-c2ccc3c(Nc4ccc(C(F)(F)F)cn4)ccnc3n2)n1 [compound 26, 5-Trifluoromethyl-6-[5-(5-trifluoromethyl-pyridin-2-ylamino)-[1,8]naphthyridin-2-yl]-pyridine-2-carboxylic acid]	< 1000 nM	–
FC(F)(F)c1ccc(Nc2ccnc3nc(-c4ncc(Br)cc4C(F)(F)F)cnc23)nc1 [Compound 10, 3-(5-Bromo-3-(trifluoromethyl)pyridin-2-yl)-N-(5-(trifluoromethyl)pyridin-2-yl)pyrido[2,3-b]pyrazin-8-amine]	–	< 1000 nM
CS(=O)(=O)c1ccc(-c2cnc3c(Nc4ccc(C(F)(F)F)cn4)ccnc3n2)c(C(F)(F)F)c1 [compound 41, 3-[4-(methylsulfonyl)-2-(trifluoromethyl)phenyl]-N-[5-(trifluoromethyl)pyridin-2-yl]pyrido[2,3-b]pyrazin-8-amine]	< 1000 nM	–

Continued, values first:

IC50 [1]	IC50 [2]	SMILES
< 1000 nM	–	FC(F)(F)c1ccc(Nc2ccnc3nc(-c4nnc(NC5CC5)cc4C(F)(F)F)cnc23)nc1 [compound 104, 3-[6-(cyclopropylamino)-4-(trifluoromethyl)pyridazin-3-yl]-N-[5-(trifluoromethyl)-pyridin-2-yl]pyrido[2,3-b]pyrazin-8-amine]
< 1000 nM	–	FC(F)(F)c1ccc(Nc2ccnc3nc(-c4nnc(NCCN5CCCCC5)cc4C(F)(F)F)cnc23)nc1 [compound 53, 3-{6-[(2-piperidin-1-ylethyl)amino]-4-(trifluoromethyl)pyridazin-3-yl}-N-[5-(trifluoromethyl)-pyridin-2-yl]pyrido[2,3-b]pyrazin-8-amine]
< 1000 nM	–	CCCCN(C)CCNc1cc(C(F)(F)F)c(-c2cnc3c(Nc4ccc(C(F)(F)F)cn4)ccnc3n2)nn1 [compound 70, N-butyl-N-methyl-N′-[5-(trifluoromethyl)-6-(8-{[5-(trifluoromethyl)pyridin-2-yl]amino}pyrido[2,3-b]pyrazin-3-yl)pyridazin-3-yl]ethane-1,2-diamine]
< 1000 nM	–	CCC(CC)Nc1cc(C(F)(F)F)c(-c2cnc3c(Nc4ccc(C(F)(F)F)cn4)ccnc3n2)nn1 [compound 115, 3-{6-[(1-ethylpropyl)amino]-4-(trifluoromethyl)pyridazin-3-yl}-N-[5-(trifluoromethyl)-pyridin-2-yl]pyrido[2,3-b]pyrazin-8-amine]
< 1000 nM	–	CCN(C)CCN(CC)c1cc(C(F)(F)F)c(-c2cnc3c(Nc4ccc(C(F)(F)F)cn4)ccnc3n2)nn1 [compound 91, N,N′-diethyl-N-methyl-N′-[5-(trifluoromethyl)-6-(8-{[5-(trifluoromethyl)pyridin-2-yl]amino}pyrido[2,3-b]pyrazin-3-yl)pyridazin-3-yl]ethane-1,2-diamine]
< 1000 nM	–	C[C@H](O)CNc1cc(C(F)(F)F)c(-c2cnc3c(Nc4ccc(C(F)(F)F)cn4)ccnc3n2)nn1 [compound 126, (S)-1-{[5-(trifluoromethyl)-6-(8-{[5-(trifluoromethyl)-pyridin-2-yl]amino}-pyrido[2,3-b]pyrazin-3-yl)pyridazin-3-yl]amino}propan-2-ol]
< 1000 nM	–	CCCN(CC1CC1)c1cc(C(F)(F)F)c(-c2cnc3c(Nc4ccc(C(F)(F)F)cn4)ccnc3n2)nn1 [compound 153, 3-{6-[(cyclopropylmethyl)-(propyl)amino]-4-(trifluoro-methyl)pyridazin-3-yl}-N-[5-(trifluoromethyl)pyridin-2-yl]pyrido[2,3-b]pyrazin-8-amine]
–	< 1000 nM	FC(F)(F)c1ccc(Nc2ccnc3nc(-c4nnc(NCc5cccnc5)cc4C(F)(F)F)cnc23)nc1 [Compound 20]
–	< 1000 nM	CCOc1cc(C(F)(F)F)c(-c2cnc3c(Nc4ccc(C(F)(F)F)cn4)ccnc3n2)nn1 [Compound 16]
